Results: US20020035061A1, “COMPOSITIONS AND METHODS FOR TREATING INFECTIONS USING CATIONIC PEPTIDES ALONE OR IN COMBINATION WITH ANTIBIOTICS” (priority 1996, published 2002)

Tested on: bacterial isolates
Experiment: microbe, parasite or virus in culture
Type: cell-based

KWKSFIKKLTSAAKKVVTTAKPLISS [MBI 26]
Peptide MIC Alone (P. aeruginosa PA4, Mupirocin section): >128 µg/mL | Ceftriaxone MIC + Peptide (P. aeruginosa PA008): 8 µg/mL | Peptide MIC + Ceftriaxone (P. aeruginosa PA008): 0.125 µg/mL | Ceftriaxone MIC + Peptide (P. aeruginosa PA024): 4 µg/mL | Peptide MIC + Ceftriaxone (P. aeruginosa PA024): 32 µg/mL | Gentamicin MIC + Peptide (P. aeruginosa PA041): 1 µg/mL | Peptide MIC + Gentamicin (P. aeruginosa PA041): 32 µg/mL | Ciprofloxacin MIC + Peptide (P. aeruginosa PA41): 1 µg/mL | Peptide MIC + Ciprofloxacin (P. aeruginosa PA41): 32 µg/mL | Ciprofloxacin MIC + Peptide (P. aeruginosa PA77): 0.125 µg/mL | Peptide MIC + Ciprofloxacin (P. aeruginosa PA77): 64 µg/mL | Peptide MIC + Piperacillin (S. aureus 19 MRSA): 1 µg/mL | Piperacillin MIC + Peptide (S. aureus 19 MRSA): 16 µg/mL | Peptide MIC Alone (S. aureus 19 MRSA, Piperacillin section): 32 µg/mL | Ciprofloxacin MIC + Peptide (S. aureus SA11): 32 µg/mL | Peptide MIC + Ciprofloxacin (S. aureus SA11): 0.125 µg/mL | Ceftriaxone MIC + Peptide (S. aureus SA025 MRSA): 0.125 µg/mL | Peptide MIC + Ceftriaxone (S. aureus SA025 MRSA): 0.5 µg/mL | FIC (S. aureus SA044, combination with Ciprofloxacin): 0.63 | FIC (S. aureus SA7609, combination with Clindamycin): 0.25 | FIC (S. aureus SA7609, combination with Methicillin): 0.56 | FIC (S. aureus SA7610, combination with Clindamycin): 0.63 | FIC (S. aureus SA7610, combination with Methicillin): 0.31 | FIC (S. aureus SA7795, combination with Ampicillin): 0.52 | FIC (S. aureus SA7795, combination with Clindamycin): 0.53 | FIC (S. aureus SA7796, combination with Ampicillin): 1.00 | FIC (S. aureus SA7796, combination with Clindamycin): 0.51 | FIC (S. aureus SA7817, combination with Ampicillin): 0.50 | FIC (S. aureus SA7818, combination with Ampicillin): 1.00 | FIC (S. aureus SA7818, combination with Erythromycin): 0.15 | FIC (S. aureus SA7821, combination with Erythromycin): 0.50 | FIC (S. aureus SA7822, combination with Ampicillin): 0.25 | FIC (S. aureus SA7823, combination with Ampicillin): 0.25 | FIC (S. aureus SA7824, combination with Ampicillin): 1.00 | FIC (S. aureus SA7825, combination with Ampicillin): 1.00 | FIC (S. aureus SA7825, combination with Erythromycin): 1.00 | FIC (S. aureus SA7834, combination with Ampicillin): 0.53 | FIC (S. aureus SA7834, combination with Clindamycin): 0.56 | FIC (S. aureus SA7835, combination with Ampicillin): 0.53 | FIC (S. aureus SA7836, combination with Ampicillin): 0.75 | FIC (S. aureus SA7837, combination with Ampicillin): 1.00 | FIC (S. aureus SAATCC25293, combination with Methicillin): 0.50 | FIC (S. aureus SAATCC29213, combination with Methicillin): 0.31 | FIC (S. aureus SAW1133, combination with Methicillin): 0.75 | Peptide MIC + Piperacillin (S. aureus SB3MRSA): 16 µg/mL | Piperacillin MIC + Peptide (S. aureus SB3MRSA): 64 µg/mL | Peptide MIC Alone (S. aureus SB3MRSA, Piperacillin section): >128 µg/mL | Mupirocin MIC + Peptide (S. aureus SBSA4): 30 µg/mL | Peptide MIC + Mupirocin (S. aureus SBSA4): 8 µg/mL | Peptide MIC Alone (S. aureus SBSA4, Mupirocin section): 32 µg/mL | Ceftriaxone MIC + Peptide (S. epidermidis SE007): 2 µg/mL | Peptide MIC + Ceftriaxone (S. epidermidis SE007): 0.5 µg/mL | Ceftriaxone MIC + Peptide (S. epidermidis SE012): 16 µg/mL | Peptide MIC + Ceftriaxone (S. epidermidis SE012): 1 µg/mL | Peptide MIC + Tobramycin (S. epidermidis SE067): 0.25 µg/mL | Peptide MIC Alone (S. epidermidis SE067): 2 µg/mL | Tobramycin MIC + Peptide (S. epidermidis SE067): 64 µg/mL | Peptide MIC + Tobramycin (S. epidermidis SE068): 0.5 µg/mL | Peptide MIC Alone (S. epidermidis SE068): 2 µg/mL | Tobramycin MIC + Peptide (S. epidermidis SE068): 4 µg/mL | FIC (S. epidermidis SE8406, combination with Clindamycin): 0.50 | FIC (S. epidermidis SE8416, combination with Clindamycin): 0.56 | FIC (S. epidermidis SE8505, combination with Ampicillin): 1.00 | FIC (S. epidermidis SE8565, combination with Ampicillin): 1.00 | FIC (S. haemolyticus SH8459, combination with Ampicillin): 0.52 | FIC (S. haemolyticus SH8472, combination with Ampicillin): 0.56 | FIC (S. haemolyticus SH8563, combination with Ampicillin): 0.75 | FIC (S. haemolyticus SH8564, combination with Ampicillin): 0.62 | FIC (S. haemolyticus SH8575, combination with Ampicillin): 0.75 | FIC (S. haemolyticus SH8576, combination with Ampicillin): 0.62 | FIC (S. haemolyticus SH8578, combination with Ampicillin): 1.00 | Peptide MIC + Piperacillin (S. maltophilia 3): 4 µg/mL | Piperacillin MIC + Peptide (S. maltophilia 3): 32 µg/mL | Peptide MIC Alone (S. maltophilia 3, Piperacillin section): 16 µg/mL | Ciprofloxacin MIC + Peptide (S. maltophilia 34): 0.25 µg/mL | Peptide MIC + Ciprofloxacin (S. maltophilia 34): 8 µg/mL | Peptide MIC + Piperacillin (S. maltophilia 34): 16 µg/mL | Piperacillin MIC + Peptide (S. maltophilia 34): 4 µg/mL | Peptide MIC Alone (S. maltophilia 34, Piperacillin section): >32 µg/mL | Ciprofloxacin MIC + Peptide (S. maltophilia 35): 0.5 µg/mL | Peptide MIC + Ciprofloxacin (S. maltophilia 35): 16 µg/mL | Peptide MIC + Piperacillin (S. maltophilia 35): 16 µg/mL | Piperacillin MIC + Peptide (S. maltophilia 35): 4 µg/mL | Peptide MIC Alone (S. maltophilia 35, Piperacillin section): >32 µg/mL | Gentamicin MIC + Peptide (S. maltophilia SMA016): 32 µg/mL | Peptide MIC + Gentamicin (S. maltophilia SMA016): 32 µg/mL | Gentamicin MIC + Peptide (S. maltophilia SMA017): 16 µg/mL | Peptide MIC + Gentamicin (S. maltophilia SMA017): 2 µg/mL | Ceftriaxone MIC + Peptide (S. maltophilia SMA019): 64 µg/mL | Peptide MIC + Ceftriaxone (S. maltophilia SMA019): 1 µg/mL | Ceftriaxone MIC + Peptide (S. maltophilia SMA020): 32 µg/mL | Peptide MIC + Ceftriaxone (S. maltophilia SMA020): 1 µg/mL | Amikacin MIC + Peptide (S. maltophilia SMA021): 8 µg/mL | Peptide MIC + Amikacin (S. maltophilia SMA021): 2 µg/mL | Peptide MIC + Tobramycin (S. maltophilia SMA029): 4 µg/mL | Peptide MIC Alone (S. maltophilia SMA029): >128 µg/mL | Tobramycin MIC + Peptide (S. maltophilia SMA029): 4 µg/mL | Peptide MIC + Tobramycin (S. maltophilia SMA030): 4 µg/mL | Peptide MIC Alone (S. maltophilia SMA030): >128 µg/mL | Tobramycin MIC + Peptide (S. maltophilia SMA030): 4 µg/mL | Amikacin MIC + Peptide (S. maltophilia SMA037): 16 µg/mL | Peptide MIC + Amikacin (S. maltophilia SMA037): 16 µg/mL | Peptide MIC + Piperacillin (S. marcescens 1): 0.5 µg/mL | Piperacillin MIC + Peptide (S. marcescens 1): 32 µg/mL | Peptide MIC Alone (S. marcescens 1, Piperacillin section): >128 µg/mL | FIC (peptide + Amikacin, A. baumannii ABI001): 0.50 | FIC (peptide + Amikacin, A. baumannii ABI003): 0.38 | FIC (peptide + Amikacin, S. maltophilia SMA021): 0.13 | FIC (peptide + Amikacin, S. maltophilia SMA037): 0.19 | FIC (peptide + Ceftriaxone, A. baumannii ABI002): 0.50 | FIC (peptide + Ceftriaxone, A. baumannii ABI005): 0.56 | FIC (peptide + Ceftriaxone, B. cepacia BC003): 0.50 | FIC (peptide + Ceftriaxone, E. cloacae ECL014): 0.50 | FIC (peptide + Ceftriaxone, E. cloacae ECL015): 0.19 | FIC (peptide + Ceftriaxone, K. pneumoniae KP003): 0.56 | FIC (peptide + Ceftriaxone, P. aeruginosa PA008): 0.13 | FIC (peptide + Ceftriaxone, P. aeruginosa PA024): 0.50 | FIC (peptide + Ceftriaxone, S. aureus SA025 MRSA): 0.52 | FIC (peptide + Ceftriaxone, S. epidermidis SE007): 0.27 | FIC (peptide + Ceftriaxone, S. epidermidis SE012): 0.27 | FIC (peptide + Ceftriaxone, S. maltophilia SMA019): 0.50 | FIC (peptide + Ceftriaxone, S. maltophilia SMA020): 0.38 | FIC (peptide + Ciprofloxacin, A. calcoaceticus 1): 0.51 | FIC (peptide + Ciprofloxacin, A. calcoaceticus 6): 0.50 | FIC (peptide + Ciprofloxacin, E. cloacae 13): 0.27 | FIC (peptide + Ciprofloxacin, E. cloacae 15): 0.38 | FIC (peptide + Ciprofloxacin, E. cloacae 16): 0.38 | FIC (peptide + Ciprofloxacin, P. aeruginosa 23): 0.53 | FIC (peptide + Ciprofloxacin, P. aeruginosa 24): 0.53 | FIC (peptide + Ciprofloxacin, P. aeruginosa PA41): 0.50 | FIC (peptide + Ciprofloxacin, P. aeruginosa PA77): 0.56 | FIC (peptide + Ciprofloxacin, S. aureus SA11): 0.50 | FIC (peptide + Ciprofloxacin, S. maltophilia 34): 0.25 | FIC (peptide + Ciprofloxacin, S. maltophilia 35): 0.50 | FIC (peptide + Gentamicin, A. baumannii ABI001): 0.50 | FIC (peptide + Gentamicin, A. baumannii ABI002): 0.53 | FIC (peptide + Gentamicin, P. aeruginosa PA041): 0.63 | FIC (peptide + Gentamicin, S. maltophilia SMA016): 0.25 | FIC (peptide + Gentamicin, S. maltophilia SMA017): 0.38 | FIC (peptide + Mupirocin, E. coli ECO5): 0.43 | FIC (peptide + Mupirocin, E. coli SBECO2): 0.16 | FIC (peptide + Mupirocin, P. aeruginosa PA2): 0.51 | FIC (peptide + Mupirocin, P. aeruginosa PA4): 0.23 | FIC (peptide + Mupirocin, S. aureus SBSA4): 0.28 | FIC (peptide + Piperacillin, A. calcoaceticus 7): 0.25 | FIC (peptide + Piperacillin, A. calcoaceticus 8): 0.19 | FIC (peptide + Piperacillin, E. cloacae 13): 0.16 | FIC (peptide + Piperacillin, H. influenzae 1): 0.53 | FIC (peptide + Piperacillin, H. influenzae 2): 0.51 | FIC (peptide + Piperacillin, P. aeruginosa 7): 0.25 | FIC (peptide + Piperacillin, P. aeruginosa 23): 0.27 | FIC (peptide + Piperacillin, P. aeruginosa 28): 0.14 | FIC (peptide + Piperacillin, P. aeruginosa 41): 0.53 | FIC (peptide + Piperacillin, S. aureus 19 MRSA): 0.16 | FIC (peptide + Piperacillin, S. aureus SB3MRSA): 0.31 | FIC (peptide + Piperacillin, S. maltophilia 3): 0.50 | FIC (peptide + Piperacillin, S. maltophilia 34): 0.25 | FIC (peptide + Piperacillin, S. maltophilia 35): 0.26 | FIC (peptide + Piperacillin, S. marcescens 1): 0.50 | FIC (peptide + Tobramycin, S. epidermidis SE067): 0.38 | FIC (peptide + Tobramycin, S. epidermidis SE068): 0.27 | FIC (peptide + Tobramycin, S. maltophilia SMA029): 0.05 | FIC (peptide + Tobramycin, S. maltophilia SMA030): 0.05 | FIC (peptide + Vancomycin, E. faecalis EFS005): 0.31 | FIC (peptide + Vancomycin, E. faecalis EFS012): 0.07 | FIC (peptide + Vancomycin, E. faecalis EFS013): 0.07 | FIC (peptide + Vancomycin, E. faecium EFM010): 0.31 | FIC (peptide + Vancomycin, E. faecium EFM011): 0.31
